Reference: patent publication EP0966282B1, “USE OF THE ANGIOTENSIN II ANTAGONISTS LOSARTAN AND EXP-3174 TO TREAT SYMPTOMATIC HEART FAILURE” (priority 1997, dated 1998)
Where two headings read alike, the source gives them in different places.

Tested on: older patients with symptomatic heart failure
Conditions: for hospitalized overall for any reason: 48-week study observation period, p=0.018
Text: The study was approved by institutional review boards at each site; all patients gave written informed consent. An independent Data and Safety Monitoring Committee monitored the progress of the study. See Pitt B, Chang P, Timmermans P. Angiotensin II receptor antagonists in heart failure: Rationale and design of the Evaluation of Losartan in the Elderly (ELITE) Trial. Cardiovascular Drugs and Therapy 1995; 9: 693-700.
A detailed description of enrollment and exclusion criteria and study design has been presented previously. See Pitt B, Chang P, Timmermans P. Angiotensin II receptor antagonists in heart failure: Rationale and design of the Evaluation of Losartan in the Elderly (ELITE) Trial. Cardiovascular Drugs and Therapy 1995; 9: 693-700.
Titration generally occurred at 7-day intervals as tolerated. Treatment with all other concomitant cardiovascular therapies was permitted with the exception of open-label ACE inhibitors. Randomized patients were stratified by age (less than 70 and 70 years or greater).
Clinical assessments were performed weekly during titration and at three-month intervals thereafter. Laboratory evaluations were performed at weeks three, six, and twelve, and at three month intervals thereafter.
See Example 2) Hypotension-related symptoms, clinically important serum potassium increases (≥ 0.5 mEq/L), and cough, all originally secondary endpoints, were moved to tertiary endpoints. All deaths (including cause of death) and hospitalizations were adjudicated by an independent Clinical Endpoint Adjudication Committee, blinded to study treatment (see panel for mortality classification). Other prospectively-defined measures included myocardial infarction/hospitalization for unstable angina, worsening of heart failure, New York Heart Association functional classification, discontinuation from the study due to study drug intolerance, changes in neurohormonal profile.
• Sudden Cardiac Death: Death occurring without warning or within 1 hour of symptoms • Death due to Progressive Heart Failure: Death preceded by worsening signs and/or symptoms of heart failure, including cardiogenic shock • Fatal Myocardial Infarction: Death associated with autopsy-verified myocardial infarction or death within 28 days of a hospital-verified acute myocardial infarction provided no other cardiac or non-cardiac cause of death is found • Death due to Other Cardiac Causes: Death due to other cardiac causes, such as arrhythmia • Death due to Other Vascular Causes: Death due to vascular events such as stroke, pulmonary embolus, ruptured aneurysm, etc. • Death due to non-cardiovascular causes: Death not due to any cardiac or vascular events
The power and sample-size estimates for this study have been described. See Pitt B, Chang P, Timmermans P. Angiotensin II receptor antagonists in heart failure: Rationale and design of the Evaluation of Losartan in the Elderly (ELITE) Trial. Cardiovascular Drugs and Therapy 1995; 9: 693-700. Analysis of renal dysfunction (increases in serum creatinine) was based upon a modified intent-to-treat population; i.e., all patients were analyzed according to their randomization group, and an endpoint was declared only if initial and confirmatory elevations occurred while on double-blind therapy. Patients who discontinued from the study without meeting this endpoint were censored in the time-to-event analysis at the time of study discontinuation.
Analyses of deaths and heart failure hospitalizations (adjudicated endpoints) were based on an intent-to-treat population; all patients discontinued prematurely were followed through the specified 48-week period of the study. Patients not meeting the endpoint were censored in the time-to-event analysis either at the time of study completion (for patients who completed) or at the end of the 48-week follow-up period (for patients who discontinued).
For all time-to-event data, survival analyses were based upon the log-rank test.

C[C@H](CS)C(=O)N1CCC[C@H]1C(=O)O [Captopril, captopril, reference compound]
hospitalized overall for any reason (number of patients): 119 patients | hospitalized overall for any reason: 32.2% | incidence of heart failure hospitalizations (48 weeks): 5.7% | incidence of death due to progressive heart failure (human, in vivo): less than one | Cause of death: Cardiovascular, Fatal Myocardial Infarction (intent-to-treat, 48 weeks): 4 ( 1.1) number (percent) of patients | Cause of death: Cardiovascular, Other Vascular (intent-to-treat, 48 weeks): 5 ( 1.4) number (percent) of patients | Cause of death: Cardiovascular, Progressive Heart Failure (intent-to-treat, 48 weeks): 1 ( 0.3) number (percent) of patients | Cause of death: Cardiovascular, Sudden Death (intent-to-treat, 48 weeks): 14 ( 3.8) number (percent) of patients | Cause of death: Non-cardiovascular (intent-to-treat, 48 weeks): 8 ( 2.2) number (percent) of patients | Death and/or Hospitalization for Heart Failure (intent-to-treat, 48 weeks): 49 (13.2) number (percent) of patients | Hospitalization for Heart Failure (intent-to-treat, 48 weeks): 21 ( 5.7) number (percent) of patients | total mortality (intent-to-treat, 48 weeks): 32 ( 8.7) number (percent) of patients | Fatal myocardial infarction (number of patients): four | died of progressive heart failure (number of patients in each treatment group): one | total mortality (number of patients, p=0.035): 32 patients | sudden cardiac death (number of patients, p=0.043): 14 patients | death and/or heart failure hospitalizations (of 352 losartan-treated, of 370 captopril-treated patients): 49 patients | death and/or heart failure hospitalizations (percent of patients, p=0.075): 13.2% | female patients died (subpopulation of female patients: of 118 losartan-treated, of 122 captopril-treated): 8 patients | patients classified as New York Heart Association Class I or II at the end of the study (week 48, versus 66 percent (losartan) and 64 percent (captopril) at baseline): 82%
